Laboratory results: ChEMBL document CHEMBL1201862, “PubChem BioAssay data set” (2004)
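All cell lines were grown in 96-well plates and treated with compound for 48 hours. At the GI50, growth is halved.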 Active and inactive are the calls of the source. No stated cut-off is given here; in the data, active = GI50 up to about 1.1 µM and inactive = higher.

Assays:
Test in all cases: DTP human tumour cell line panel, 48 h
[1] = test system: NCI-H460
[2] = test system: CAKI-1
[3] = test system: HOP-62
[4] = test system: ACHN
[5] = test system: SR
[6] = test system: MDA-MB-231
[7] = test system: NCI-H522
[8] = test system: Hs-578T
[9] = test system: PC-3
[10] = test system: KM12
[11] = test system: MDA-N
[12] = test system: SK-MEL-28
[13] = test system: NCI/ADR-RES
[14] = test system: CCRF-CEM
[15] = test system: SK-MEL-5
[16] = test system: OVCAR-3
[17] = test system: HL-60
[18] = test system: SF-295
[19] = test system: EKVX
[20] = test system: HCT-15

Row | SMILES | GI50 [1] | GI50 [2] | GI50 [3] | GI50 [4] | GI50 [5] | GI50 [6] | GI50 [7] | GI50 [8] | GI50 [9] | GI50 [10] | GI50 [11] | GI50 [12] | GI50 [13] | GI50 [14] | GI50 [15] | GI50 [16] | GI50 [17] | GI50 [18] | GI50 [19] | GI50 [20]
1 | Cc1c(F)c(N)c2c(=O)cc(-c3ccc(N)c(F)c3)oc2c1F [AMINOFLAVONE] | 0.199 µM (active) | < 0.0131 µM (active) | 12.7 µM (inactive) | 15.7 µM (inactive) | 18.7 µM (inactive) | 18.7 µM (inactive) | 9.71 µM (inactive) | 38.1 µM (inactive) | 20.7 µM (inactive) | 21.9 µM (inactive) | 29.4 µM (inactive) | 45.1 µM (inactive) | 13.9 µM (inactive) | 28 µM (inactive) | 20.4 µM (inactive) | 0.458 µM (active) | 44.8 µM (inactive) | 15.6 µM (inactive) | 13.7 µM (inactive) | 33.3 µM
2 | c1ccc(COc2nc3cc(C45CC6CC(CC(C6)C4)C5)ccc3[nH]2)cc1 | 9.2 µM (inactive) | 39.7 µM (inactive) | 24.4 µM (inactive) | 14.6 µM (inactive) | > 100 µM (inactive) | 21.8 µM (inactive) | 3.42 µM (inactive) | 23 µM (inactive) | 9.06 µM (inactive) | 15.5 µM (inactive) | 11.9 µM (inactive) | 17.1 µM (inactive) | 7.45 µM (inactive) | 10.2 µM (inactive) | 5.53 µM (inactive) | 22.9 µM (inactive) | 9.38 µM (inactive) | 6.7 µM (inactive) | 13.5 µM (inactive) | 3.72 µM
3 | COC1C(OC(=O)/C=C/C=C/C=C/C=C/C(=O)O)CCC2(CO2)C1C1(C)OC1CC=C(C)C (stereo not drawn) | 0.112 µM (active) | 43.8 µM (inactive) | 62.1 µM (inactive) | 18.5 µM (inactive) | 20.6 µM (inactive) | 21.3 µM (inactive) | 23.2 µM (inactive) | 40.2 µM (inactive) | 15.2 µM (inactive) | 12.4 µM (inactive) | 20.5 µM (inactive) | 18.2 µM (inactive) | > 63.8 µM (inactive) | 21.4 µM (inactive) | 18.5 µM (inactive) | 29.2 µM (inactive) | 16.4 µM (inactive) | 17.3 µM (inactive) | 27.2 µM (inactive) | 24.2 µM
4 | Cn1c2ccc([N+](=O)[O-])cc2c(=O)c2c(O)cc(O)cc21 | 24.9 µM (inactive) | 43 µM (inactive) |  | 33.1 µM (inactive) | 19.2 µM (inactive) | 57.3 µM (inactive) | 7.74 µM (inactive) | 27.5 µM (inactive) | > 100 µM (inactive) | 61.1 µM (inactive) | > 100 µM (inactive) | > 100 µM (inactive) | 17 µM (inactive) | > 100 µM (inactive) | 60 µM (inactive) | 52.4 µM (inactive) | > 100 µM (inactive) | 15.3 µM (inactive) | 5.94 µM (inactive) | 60.3 µM
5 | CCOc1ccc(/N=N/C2C(=O)N(C(=O)CC(=O)Nc3ccc(Cl)cc3)N=C2C)cc1 (stereo not drawn) | > 100 µM (inactive) | > 100 µM (inactive) | > 100 µM (inactive) | > 100 µM (inactive) | > 100 µM (inactive) | > 100 µM (inactive) | > 100 µM (inactive) | > 100 µM (inactive) | > 100 µM (inactive) | > 100 µM (inactive) | > 100 µM (inactive) | > 100 µM (inactive) | > 100 µM (inactive) | > 100 µM (inactive) | > 100 µM (inactive) | > 100 µM (inactive) | > 100 µM (inactive) | > 100 µM (inactive) | > 100 µM (inactive) | 
6 | C=C(C)[C@@H]1CC[C@]2(C(=O)OC)CC[C@]3(C)[C@H](CC[C@@H]4[C@@]5(C)CC[C@H](O)C(C)(C)[C@@H]5CC[C@]43C)[C@@H]12 [METHYL BETULINATE] | 18.5 µM (inactive) | 20.8 µM (inactive) | 18.8 µM (inactive) | 16.9 µM (inactive) | 32.3 µM (inactive) | 34 µM (inactive) | 18.9 µM (inactive) | 21.6 µM (inactive) | 16.7 µM (inactive) | 15.6 µM (inactive) | 18.2 µM (inactive) | 22.3 µM (inactive) | 19 µM (inactive) | 19.4 µM (inactive) | 18.8 µM (inactive) | 19.8 µM (inactive) | 35.5 µM (inactive) | 18.4 µM (inactive) | 21.7 µM (inactive) | 20.5 µM
7 | CC1=C(N2CC2)C(=O)C(C)=C(N2CC2)C1=O | < 0.0111 µM (active) | 0.0991 µM (active) | 0.102 µM (active) | 0.0315 µM (active) | 0.05 µM (active) | 4.01 µM (inactive) | 0.0998 µM (active) | 0.933 µM (active) | 0.282 µM (active) | 0.279 µM (active) | 0.0998 µM (active) | 0.356 µM (active) | 0.0221 µM (active) | 0.0434 µM (active) | 0.155 µM (active) | 0.249 µM (active) | 0.0206 µM (active) | 0.127 µM (active) | 0.697 µM (active) | 0.196 µM
